Reference: ChEMBL document CHEMBL1671694, “OXA-24 carbapenemase gene flanked by XerC/XerD-like recombination sites in different plasmids from different Acinetobacter species isolated during a nosocomial outbreak” (2010)
≈ marks a conversion by molar mass, not a printed value.

What was measured:
Acinetobacter baylyi [1] = experiment: Antimicrobial activity against Acinetobacter baylyi ADP1 harboring pMMCU1 plasmid expressing bla-OXA-24 gene by microdilution method; format: functional
Acinetobacter baylyi [2] = experiment: Antimicrobial activity against Acinetobacter baylyi ADP1 by microdilution method; format: functional

SMILES: C[C@@H](O)[C@H]1C(=O)N2C(C(=O)O)=C(SCCNC=N)C[C@H]12 [IMIPENEM ANHYDROUS]
- MIC (Acinetobacter baylyi [1]): > 32 µg/mL
- MIC (Acinetobacter baylyi [2]): 0.094 µg/mL (≈ 0.314 µM)

SMILES: C[C@@H](O)[C@H]1C(=O)N2C(C(=O)O)=C(S[C@@H]3CN[C@H](C(=O)N(C)C)C3)[C@H](C)[C@H]12 [MEROPENEM]
- MIC (Acinetobacter baylyi [1]): > 32 µg/mL
- MIC (Acinetobacter baylyi [2]): 0.25 µg/mL (≈ 0.652 µM)
